Test results from the SangsterLogP compilation.

Experiment: method code SF-AS, from DOI: 10.1021/jo00922a017
Details: pH 1.0

| Compound | logD |
| --- | --- |
| O=C(c1ccccc1)c1ccc(NS(=O)(=O)C(F)(F)F)cc1 | 4.28 |
| O=S(=O)(CF)Nc1ccccc1 | 1.35 |
| COc1ccc(NS(=O)(=O)C(F)(F)F)cc1 | 3 |
| O=S(=O)(CF)Nc1ccc(Cl)cc1 | 2.25 |
| CS(=O)(=O)c1ccc(NS(=O)(=O)C(F)(F)F)cc1 | 1.99 |
| CS(=O)(=O)c1cccc(NS(=O)(=O)C(F)(F)F)c1 | 1.85 |
| O=S(=O)(Nc1ccc(-c2ccccc2)cc1)C(F)(F)F | 4.97 |
| CC(=O)c1ccc(NS(=O)(=O)C(F)(F)F)cc1 | 2.83 |
| O=S(=O)(Nc1cccc(C(F)(F)F)c1)C(F)(F)F | 4.5 |
| CC(=O)c1cccc(NS(=O)(=O)C(F)(F)F)c1 | 2.78 |
| O=S(=O)(Nc1ccc(Cl)cc1)C(F)F | 2.84 |
| CS(=O)(=O)Nc1ccc(Cl)cc1 | 1.85 |
| O=S(=O)(Nc1ccc(C(F)(F)F)cc1)C(F)(F)F | 4.47 |
| O=S(=O)(Nc1ccccc1)C(F)F | 1.95 |
| O=S(=O)(Nc1ccccc1)C(F)(F)F | 3.05 |

More lines, now with the values ahead:

| logD | Compound |
| --- | --- |
| 3.06 | O=S(=O)(Nc1ccc(F)cc1F)C(F)(F)F |
| 3.82 | O=S(=O)(Nc1cccc(Br)c1)C(F)(F)F |
| 3.96 | O=S(=O)(Nc1ccc(Cl)cc1)C(F)(F)F |
| 3.42 | O=S(=O)(Nc1cccc(F)c1)C(F)(F)F |
| 3.6 | Cc1ccc(NS(=O)(=O)C(F)(F)F)cc1 |
| 4 | O=S(=O)(Nc1cccc(Cl)c1)C(F)(F)F |
| 4.39 | O=S(=O)(Nc1ccc(I)cc1)C(F)(F)F |
| 3.13 | COc1cccc(NS(=O)(=O)C(F)(F)F)c1 |
| 3.25 | O=S(=O)(Nc1ccc(F)cc1)C(F)(F)F |
| 2.51 | O=S(=O)(Nc1cccc(O)c1)C(F)(F)F |
| 3.88 | O=S(=O)(Nc1ccc(Cl)cc1Cl)C(F)(F)F |
